One data set has as its system HCV. To be noted: cited from earlier work.

Each structure is given as a SMILES string.

As to `OC[C@H]1O[C@@H](c2coc3c(N4CCCC4)ncnc23)[C@H](O)[C@@H]1O`, the melting point is 198 °C.

In turn, `C[C@@]1(O)[C@H](O)[C@@H](CO)O[C@H]1c1coc2c(N(N)CCO)ncnc12` returned a melting point of 84 to 92 °C.

On to `CN(N)c1ncnc2c([C@@H]3O[C@H](CO)[C@@H](O)[C@@]3(C)O)coc12`, for which the melting point fell in the range of 70 to 84 °C.

`C[C@@]1(O)[C@H](O)[C@@H](CO)O[C@H]1c1coc2c(=O)[nH]c(N)nc12` came in with a melting point of 80 to 84 °C.

In turn, `CNc1ncnc2c([C@@H]3O[C@H](CO)[C@@H](O)[C@H]3O)coc12` showed a melting point of 88 to 100 °C.

Compound `CCNc1ncnc2c([C@@H]3O[C@H](CO)[C@@H](O)[C@H]3O)coc12` returned a melting point of 76 to 88 °C.

In the case of `CC(C)Nc1ncnc2c([C@@H]3O[C@H](CO)[C@@H](O)[C@H]3O)coc12`, the melting point was in the range of 58 to 80 °C.

Turning to `CN(C)c1ncnc2c([C@@H]3O[C@H](CO)[C@@H](O)[C@H]3O)coc12`, the melting point came to 210 °C.

For the compound `CCCNc1ncnc2c([C@@H]3O[C@H](CO)[C@@H](O)[C@H]3O)coc12`, the melting point lay within 58 to 80 °C.

`OC[C@H]1O[C@@H](c2coc3c(NC4CC4)ncnc23)[C@H](O)[C@@H]1O` displayed a melting point of 88 to 100 °C.

`OC[C@H]1O[C@@H](c2coc3c(N4CCC4)ncnc23)[C@H](O)[C@@H]1O` came in with a melting point of 192 °C.

Regarding `COC(=O)C(NP(=O)(OC[C@H]1O[C@@H](c2coc3c(N)ncnc23)[C@](C)(O)[C@@H]1O)Oc1ccccc1)C(C)C` (stereo in doubt), the melting point is 58 to 62 °C.

In the case of `NC(=O)c1ncn([C@@H]2O[C@H](CO)[C@@H](O)[C@H]2O)n1` [Ribavirin, 1-β-D-ribofuranosyl-1-1,2,4-triazole-3-carboxamide], the “effect on serum levels of HCV-RNA” value with HCV (patients, sole treatment) is “does not lower serum levels of HCV-RNA”. The “patients in whom serum amino transferase levels are reduced to normal” value in the data set with HCV (ribavirin alone) is given as 40%.

The record behind these values is patent publication US7429571B2, “Therapeutic furopyrimidines and thienopyrimidines” (BioCryst Pharmaceuticals, Inc., priority 2004, dated 2008).
